Among the data in patent US12344603B2 (Genentech, Inc., priority 2020, dated 2025) are IC50 values, retold here.

This assay addresses IRE1α (Homo sapiens (Human), UniProt O75460, D688N). Briefly: IRE1α TR-FRET competition binding assay (IRE1α HTRF). The note with it: TR-FRET competition binding to kinase domain of IRE1α. The method, then:
IRE1α TR-FRET Competition Binding Assay. The affinity of compound binding to the kinase domain of IRE1α was determined using a time-resolved fluorescence resonance energy transfer (TR-FRET) competition assay.
The purified protein (final concentration 0.25 nM) was pre-incubated with anti-His Europium labeled antibody (Life Technologies PV5596, final concentration 2 nM) for one hour at 4° C. in TR-FRET Assay Buffer (50 mM HEPES, pH 7.5, 10 mM MgCl2, 0.083 mM Brij 35, 1 mM DTT, and 0.1% bovine gamma globulin) prior to addition to test compounds. An Alexa fluor 647-labeled probe based on an ATP competitive inhibitor was added to a final concentration of 2 nM. Reactions were carried out for one hour at room temperature in a final volume of 20 μL in 384 well white ProxiPlates (Perkin Elmer 6008289). Binding of the probe to the IRE1α protein was detected in an Envision instrument (PerkinElmer) equipped with a TRF laser option and a LANCE/Delfia Dual/Bias D400/D630 mirror (Ex 347 nm, 1st Em 665 nm, 2nd Em 615 nm).
For orientation: In TR-FRET formats the signal depends on donor and acceptor labels being close together.

Structures can show the parent of a compound that is named as a salt.

Chain of IRE1α (O75460 547-977 D688N): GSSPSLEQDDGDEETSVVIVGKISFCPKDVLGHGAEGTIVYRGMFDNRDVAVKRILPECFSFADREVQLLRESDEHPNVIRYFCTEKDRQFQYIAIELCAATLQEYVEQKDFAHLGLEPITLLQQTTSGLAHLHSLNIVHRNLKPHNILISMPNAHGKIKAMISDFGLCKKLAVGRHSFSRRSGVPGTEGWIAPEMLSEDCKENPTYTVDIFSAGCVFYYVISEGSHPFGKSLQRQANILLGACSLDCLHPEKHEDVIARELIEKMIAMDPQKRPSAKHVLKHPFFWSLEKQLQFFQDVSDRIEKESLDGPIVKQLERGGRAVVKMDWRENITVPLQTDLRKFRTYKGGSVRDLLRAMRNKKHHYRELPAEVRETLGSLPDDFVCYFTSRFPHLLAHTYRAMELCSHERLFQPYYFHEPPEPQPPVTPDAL

`CC(C)n1c(=O)c(-c2ccc(NS(=O)(=O)CCC3CCC3)c(F)c2)cc2cnc(N[C@H]3CC[C@H](N(C)C)CC3)nc21` [Example 231, 2-cyclobutyl-N-(4-(2-(((1r,4r)-4-(dimethyl-amino)cyclohexyl)-amino)-8-isopropyl-7-oxo-7,8-dihydropyrido-[2,3-d]pyrimidin-6-yl)-2-fluorophenyl)ethane-1-sulfonamide]: the IC50 (usually the concentration needed to halve the response being measured) was found to be 0.1 nM. That is a sub-nanomolar value. `CC(C)n1c(=O)c(-c2ccc(NS(=O)(=O)CCN3CC(F)(F)C3)c(F)c2)nc2cnc(N[C@H]3CC[C@H](N(C)C)CC3)nc21` [Compound 182, 2-(3,3-Difluoroazetidin-1-yl)-N-(4-(2-(((1r,4r)-4-(dimethylamino)cyclohexyl)amino)-8-isopropyl-7-oxo-7,8-dihydropteridin-6-yl)-2-fluorophenyl)ethane-1-sulfonamide] displayed an IC50 of 0.87 nM. This IC50 is about 8.7-fold higher than that of the compound before. `CC(C)n1c(=O)c(-c2ccc(NS(=O)(=O)CCC(F)(F)F)c(F)c2)nc2cnc(N[C@H]3CC[C@H](N(C)C)[C@@H](F)C3)nc21` (stereo in doubt) [Compound 179A, N-(4-(2-((4-(Dimethylamino)-3-fluorocyclohexyl)amino)-8-isopropyl-7-oxo-7,8-dihydropteridin-6-yl)-2-fluorophenyl)-3,3,3-trifluoropropane-1-sulfonamide]: the IC50 amounted to 0.22 nM. In the case of `CC(C)n1c(=O)c(-c2ccc(NS(=O)(=O)CCC(F)(F)F)c(F)c2)nc2cnc(N[C@@H]3CNC[C@@H](F)C3)nc21` [Compound 73, 3,3,3-Trifluoro-N-[2-fluoro-4-[2-[[(3S,5S)-5-fluoro-3-piperidyl]amino]-8-isopropyl-7-oxo-pteridin-6-yl]phenyl]propane-1-sulfonamide] it was 0.5 nM; in that of `CC(C)n1c(=O)c(-c2cc(F)c(NS(=O)(=O)CC(F)(F)CC3CC3)c(F)c2)nc2cnc(N[C@H]3CC[C@H](N(C)C)CC3)nc21` [Example 248, 3-Cyclopropyl-N-[4-[2-[[4-(dimethylamino)cyclohexyl]amino]-8-isopropyl-7-oxo-pteridin-6-yl]-2,6-difluoro-phenyl]-2,2-difluoro-propane-1-sulfonamide], 0.2 nM; in that of `CC(C)n1c(=O)c(-c2ccc(NS(=O)(=O)CC3CCCCC3(F)F)c(F)c2)nc2cnc(N[C@H]3CC[C@H](N(C)C)CC3)nc21` (mixture of isomers) [Example 272, 1-(2,2-Difluorocyclohexyl)-N-[4-[2-[[4-(dimethylamino)cyclohexyl]amino]-8-isopropyl-7-oxo-pteridin-6-yl]-2-fluoro-phenyl]methanesulfonamide], 0.2 nM. Regarding `CC(C)n1c(=O)c(-c2ccc(NS(=O)(=O)CCC(F)(F)F)c(F)c2)cc2cnc(N[C@H]3CCC[C@@H](N)C3)nc21` [Compound 108, N-(4-(2-(((1S,3R)-3-Aminocyclohexyl)amino)-8-isopropyl-7-oxo-7,8-dihydropyrido[2,3-d]pyrimidin-6-yl)-2-fluorophenyl)-3,3,3-trifluoropropane-1-sulfonamide hydrochloride], the IC50 was determined as 23 nM.

`CC(C)n1c(=O)c(-c2ccc(NS(=O)(=O)CC3CC(F)(F)C3)c(F)c2)nc2cnc(N[C@@H]3CC[C@@H](N(C)C)[C@H](F)C3)nc21` (stereo in doubt) [Compound 193B, 1-(3,3-Difluorocyclobutyl)-N-(4-(2-((4-(dimethylamino)-3-fluorocyclohexyl)amino)-8-isopropyl-7-oxo-7,8-dihydropteridin-6-yl)-2-fluorophenyl)methanesulfonamide] came in with an IC50 of 0.17 nM. Then `Cc1ccc(CS(=O)(=O)Nc2c(F)cc(-c3cc4cnc(N[C@H]5CC[C@H](N(C)C)CC5)nc4n(C(C)C)c3=O)c(F)c2F)c(C#N)c1` [Compound 113, 1-(2-Cyano-4-methylphenyl)-N-(4-(2-(((1r,4r)-4-(dimethylamino)cyclohexyl)amino)-8-isopropyl-7-oxo-7,8-dihydropyrido[2,3-d]pyrimidin-6-yl)-2,3,6-trifluorophenyl)methanesulfonamide], with 0.22 nM; and `CC(C)n1c(=O)c(-c2ccc(NS(=O)(=O)c3ccccc3Cl)nc2)cc2cnc(N[C@H]3CC[C@H](N(C)C)CC3)nc21` [Compound 105, 2-Chloro-N-(5-(2-(((1r,4r)-4-(dimethylamino)cyclohexyl)amino)-8-isopropyl-7-oxo-7,8-dihydropyrido[2,3-d]pyrimidin-6-yl)pyridin-2-yl)benzenesulfonamide], with 0.16 nM.

With `CC(C)n1c(=O)c(-c2ccc(NS(=O)(=O)CCC(F)(F)F)c(F)c2)cc2cnc(N[C@H]3CC[C@H](N(C)CC4CCO4)CC3)nc21` (stereo partly drawn) [Compound 209, 3,3,3-Trifluoro-N-(2-fluoro-4-(8-isopropyl-2-(((1,4-trans)-4-(methyl(oxetan-2-ylmethyl)amino)cyclohexyl)amino)-7-oxo-7,8-dihydropyrido[2,3-d]pyrimidin-6-yl)phenyl)propane-1-sulfonamide], the IC50 turned out to be 0.19 nM. This IC50 and that of the compound before are within 1.5-fold of each other.

`CC(C)n1c(=O)c(-c2cc(F)c(NS(=O)(=O)CC3CCC3(F)F)c(F)c2)nc2cnc(N[C@H]3CC[C@H](N(C)C)CC3)nc21` (mixture of isomers) [Example 250, 1-(2,2-Difluorocyclobutyl)-N-[4-[2-[[4-(dimethylamino)cyclohexyl]amino]-8-isopropyl-7-oxo-pteridin-6-yl]-2,6-difluoro-phenyl]methanesulfonamide] registered an IC50 of 0.2 nM. In the case of `CC(C)n1c(=O)c(-c2cc(F)c(NS(=O)(=O)Cc3ccc(F)cc3)c(F)c2F)nc2cnc(N[C@H]3CC[C@H](N(C)C)CC3)nc21` [Compound 175, N-(4-(2-(((1r,4r)-4-(Dimethylamino)cyclohexyl)amino)-8-isopropyl-7-oxo-7,8-dihydropteridin-6-yl)-2,3,6-trifluorophenyl)-1-(4-fluorophenyl)methanesulfonamide hydrochloride] it was 0.14 nM. The compound `CC(C)n1c(=O)c(-c2ccc(NS(=O)(=O)CCC(F)(F)F)c(F)c2)cc2cnc(N[C@H]3CC[C@H](N(C)CCF)CC3)nc21` [Compound 157, 3,3,3-trifluoro-N-(2-Fluoro-4-(2-(((1r,4r)-4-((2-fluoroethyl)(methyl)amino)cyclohexyl)amino)-8-isopropyl-7-oxo-7,8-dihydropyrido[2,3-d]pyrimidin-6-yl)phenyl)propane-1-sulfonamide] showed an IC50 of 0.14 nM.

For the compound `Cc1nc(NS(=O)(=O)c2ccccc2F)ccc1-c1cc2cnc(N[C@H]3CC[C@H](N(C)C)CC3)nc2n(C(C)C)c1=O` [Compound 140, N-(5-(2-(((1r,4r)-4-(Dimethylamino)cyclohexyl)amino)-8-isopropyl-7-oxo-7,8-dihydropyrido[2,3-d]pyrimidin-6-yl)-6-methylpyridin-2-yl)-2-fluorobenzenesulfonamide], the IC50 turned out to be 0.3 nM. Consider `CC(C)n1c(=O)c(-c2ccc(NS(=O)(=O)c3ccccc3Cl)nc2)cc2cnc(N[C@@H]3CNC[C@@H](F)C3)nc21` [Compound 147, 2-Chloro-N-(5-(2-(((3S,5S)-5-fluoropiperidin-3-yl)amino)-8-isopropyl-7-oxo-7,8-dihydropyrido[2,3-d]pyrimidin-6-yl)pyridin-2-yl)benzenesulfonamide], for which the IC50 is 0.27 nM. The IC50 values of the last two compounds are within 1.5-fold of each other. Then `CC(C)n1c(=O)c(-c2ccc(NS(=O)(=O)CCC(F)(F)F)c(F)c2)nc2cnc(N[C@@H]3CNC[C@H](CF)C3)nc21` [Compound 76, 3,3,3-Trifluoro-N-[2-fluoro-4-[2-[[(3S,5R)-5-(fluoromethyl)-3-piperidyl]amino]-8-isopropyl-7-oxo-pteridin-6-yl]phenyl]propane-1-sulfonamide], with 0.9 nM.
